Columns and labels:
Type in all cases: cell-based
[1] = tested on: MCF-7; test: Apoptotic assay, Annexin V/PI analysis in MCF-7; details: MCF-7, Annexin V/PI, % given only in Figure 5
Procedure: In comparison to the control cells, the apoptotic assay employing Annexin V/PI analysis for compound 6i generated a substantial amount of early and late apoptosis in MCF-7. Compound 6i induced early apoptosis in MCF-7 at rate of 22.05, compared with the control MCF-7 (0.43) (Table 6 and Figure 5).
(§1) These were performed using the approach described in the Supplementary Data, page 44 [46]. […]
(§2) thoroughly, and then centrifuge at 4°C to collect contents to the bottom of the tube. Chill on ice before using. Centrifuge again briefly at 4°C if needed. Preparation of a reaction cocktail is crucial in quantitative PCR applications to reduce pipetting errors and maximize assay precision and accuracy. Assemble the reaction cocktail with all required components except sample template (total RNA) and dispense equal aliquots into each reaction tube. Add target sample to each reaction as the final step. Addition of sample as 5–10 μl volumes will improve assay precision. Replicate samples should be assembled as a master mix with a single addition of sample template.
(§3) Cell cycle analysis and apoptosis
(§4) Transfer the previously prepared cells from 4 °C to the bench-top and equilibrate to room temperature. Gently re-suspend cells by inverting the tube or by gentleup and down pipetting.
(§5) There may be visible thin salt crystals in the tube but this will not affect the sedimentation of the cells in the next step. Pellet the cells at 500 x g for 5 minutes. Carefully aspirate the supernatant without disrupting the pellet. It is better to incompletely remove the supernatant than to accidently aspirate part of the pellet and lose cells. Wash the cells by gently resuspending in 1 mL 1X PBS.
(§6) Again, pellet the cells at 500 x g for 5 minutes and carefully remove the supernatant. Gently resuspend the cell pellet in 200 μL 1X Propidium Iodide + RNase Staining Solution. Then ensure that the cells are fully resuspended. Incubate at 37 °C in the dark for 20 – 30 minutes. Place tubes on ice (still in the dark) and prepare for flow cytometry analysis. Gently resuspend cells that settled during the incubation by pipetting up and down. If desired, pass cells through an appropriate filter (not provided) to remove cell aggregates. Run samples on flow cytometer: Set appropriate FSC vs. SSC gates to exclude debris and cell aggregates. Collect Propidium iodide fluorescence in FL2.
The Protein Data Bank (http://www.rcsb.org) was utilized to obtain the 3D structures of […]
was used to conduct docking studies on established analogues with the VEGFR-2 active site. This program was run with a searching grid that was stretched across ligand molecules, with box […]
parameters set to default. The highest scoring posit ion for every compound was chosen after docking it into the crystal structure. […]

[2] = tested on: MCF-7 breast cell line; test: MTT assay, anti-proliferative activity toward MCF-7; details: Homo sapiens, MCF7
Procedure: . The developed compounds were evaluated in vitro using the MTT cell viability assay following the published techniques (Supplementary Data, page 42). […]
The 96 well tissue culture plate was seeded with 1 X 10^5 cells / ml (100 ul / well) and cultured at 37 degrees Celsius for 24 hours to form a full monolayer sheet. After forming a confluent sheet of cells, growth medium was decanted from 96 well micro titer plates, the cell monolayer was washed twice with wash media, and two-fold dilutions of the tested sample were prepared in RPMI medium with 2% serum (maintenance medium). In each well, 0.1 ml of each dilution was examined, with three wells serving as controls and receiving only maintenance media.
The plate was incubated at 37 degrees Celsius and then analyzed. Cells were examined for any physical evidence of toxicity, such as partial or total monolayer loss, rounding, shrinkage, or cell granulation. MTT solution (5mg/ml in PBS) was prepared (BIO BASIC CANADA INC), and 20ul MTT solution was added to each well. Shake the MTT into the medium for 5 minutes at 150rpm on a shaking table. Incubate for 4 hours (37°C, 5% CO2) to allow the MTT to be digested. Remove the media. (If required, dry plate on paper towels to remove residue. In 200ul DMSO, resuspend formazan (MTT metabolic product). Shake at 150rpm for 5 minutes to properly mix the formazan into the solvent. At 560nm, measure optical density and subtract background at 620nm. The optical density should be proportional to the number of cells. MCF-7 and MCF-10A cell lines were provided with 10% fetal bovine serum (FBS, Sigma-Aldrich, MO, USA). Data are presented as the mean of the IC50 values ± SD from three different experiments. […]

[3] = tested on: MCF-7; test: Cell cycle analysis (propidium iodide flow cytometry) in MCF-7; details: MCF-7 cell cycle distribution
Procedure: Compound 6i arrested cells in the G2/M phase with %G2/M = 27.07, compared with %G2/M = 11.31 for the control MCF-7 (Table 5 and Figure 4).
as §1, §2, §3, §4, §5
as §6, with “Run samples on flow cytometer: Set appropriate FSC vs. SSC gates to exclude debris and cell aggregates.” left out, “FL2. […]” for “FL2.”

CCCCN1C(=O)C(=NNC(=O)c2c(C)nc3sccn23)c2ccccc21 [Compound 6i, N′-(1-Butyl-2-oxoindolin-3-ylidene)-6-methylimidazo[2,1-b]thiazole-5-carbohydrazide]
Apoptosis Late ([1]; control 0.11): 7.61% | Apoptosis Early ([1]; control 0.43): 22.05% | Necrosis ([1]; control 1.37): 3.15% | Apoptosis Total ([1]; control 1.91): 32.81% | IC50 [2]: 8.38 ± 0.62 µM | %G2/M ([3]; control 11.31): 27.07% | %S ([3]; control 23.96): 19.27% | %G0–G1 ([3]; control 64.73): 53.66%
